Laboratory results reported in US11702392B2, “Pyrimidinone derivatives as SHP2 antagonists” (MERCK PATENT GMBH, priority 2019, dated 2023).
Entries after “also recorded” stand apart in the source; their conditions may differ.

Assays:
[1] = target: Full length SHP2 protein (Recombinant Human SHP-2) (Homo sapiens (Human), UniProt Q06124); assay: SHP2 biochemical assay (DiFMUP substrate, activating peptide IRS1_2pY); conditions: activating peptide IRS1_2pY 140 nM, 60 min
Description: The inhibition of SHP2 by compounds of the invention was monitored using the surrogate substrate DiFMUP after protein activation by a peptide bearing two appropriately spaced phosphotyrosine. […] The generation of the DiFMU product by activated SHP2 was monitored through Fluorescence measurement with a PerkinElmer Envision reader. The inhibitor dose response curves were analyzed with Genedata Screener.

[2] = Pharmacokinetics in female CD1 mice (oral / intravenous); assay type: in vivo; conditions: mouse; for AUC ng/ml*h (normalized to 1 mp/k) / Cmax ng/mL (normalized to 1 mg/k): normalized to 1 mg/kg; for Fz: oral
Description: Female CD1 mice (N=3) received a single oral (gavage) or a single intravenous (bolus) injection of compound. […] Consecutive blood samples were taken sub-lingually under isofluorane inhalation from animals after 0.083 (IV), 0.25, 0.5, 1, 2, 4, 6 and 24 h and were further processed to obtain plasma. Samples were protein precipitated and analysed by LC/MS/MS.

U87-MG xenografts = assay: U87-MG xenograft (PTEN LOF glioblastoma); assay type: in vivo, mouse; conditions: 50 mg/kg QD oral gavage, CD-1 nude mice
Description: CD-1 nude mice were inoculated with 10 million U87-MG cells.

HPAF-2 xenografts = conditions: 50 mg/kg compound 23B or 60 mg/kg RMC-4550 QD oral gavage, CB17.SCID mice
EBC-1 xenografts = assay: EBC-1 xenograft (cMET amplified non-small cell lung cancer); assay type: in vivo; conditions: 100 mg/kg QD oral gavage, CD-1 nude mice
Description: CD-1 nude mice were inoculated with 5 million EBC-1 cells.

KYSE-520 xenografts = assay: Kyse-520 xenograft (EGFR amplified esophageal cancer); conditions: H2D Rag2 mice
Description: H2D Rag2 mice were inoculated with 5 million KYSE-520 cells mixed with matrigel.
In vivo efficacy of compound 74a in an EGFR amplified setting was investigated in Kyse-520 xenografts. H2D Rag2 mice were inoculated with 5 million KYSE-520 cells mixed with matrigel.

[3] = target: auto-activated mutant protein SHP2 E76K (Homo sapiens (Human), UniProt Q06124, E76K); assay: SHP2 E76K active mutant biochemical assay with and without activating peptide
Sequence of auto-activated mutant protein SHP2 E76K (Q06124 whole entry E76K): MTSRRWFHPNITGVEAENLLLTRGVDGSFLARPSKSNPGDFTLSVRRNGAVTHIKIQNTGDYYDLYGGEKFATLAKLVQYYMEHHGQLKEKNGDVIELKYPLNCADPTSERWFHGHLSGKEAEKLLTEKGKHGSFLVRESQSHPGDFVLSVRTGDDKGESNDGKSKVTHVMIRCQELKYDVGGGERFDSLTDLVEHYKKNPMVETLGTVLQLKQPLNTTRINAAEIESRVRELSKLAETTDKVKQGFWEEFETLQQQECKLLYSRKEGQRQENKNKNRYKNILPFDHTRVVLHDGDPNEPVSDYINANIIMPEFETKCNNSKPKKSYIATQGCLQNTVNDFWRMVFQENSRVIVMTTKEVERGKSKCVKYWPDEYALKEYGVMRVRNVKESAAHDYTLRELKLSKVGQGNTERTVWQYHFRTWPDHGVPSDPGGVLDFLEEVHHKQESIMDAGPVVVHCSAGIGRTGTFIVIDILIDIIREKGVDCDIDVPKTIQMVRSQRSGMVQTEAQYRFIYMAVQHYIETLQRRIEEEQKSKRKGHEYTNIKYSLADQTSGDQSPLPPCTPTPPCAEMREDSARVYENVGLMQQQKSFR
Description: The inhibition of SHP2 by compounds of the invention was monitored using the surrogate substrate DiFMUP after protein activation by a peptide bearing two appropriately spaced phosphotyrosine. Full length SHP2 protein (Recombinant HumanSHP-2, E. coli derived Ser2Arg593, N-terminal 6His tag from R&D systems; 0.0.24 nM) was incubated with activating peptide, IRSI_2pY (New England Peptide, 140 nM) and DiFMUP (molecular probes, 80 uM) at RT in buffer (HEPES pH 7.2 60 mM, DDT 5 mM, KCl 75 mM, NaCl 75 mM, EDTA 1 mM, Tween 20 0.05%) in presence of compound (10 concentrations range, top concentration 50 μM) for 60 min. The generation of the DiFMU product by activated SHP2 was monitored through Fluorescence measurement with a PerkinElmer Envision reader. The inhibitor dose response curves were analyzed with Genedata Screener.

MiaPaCa-2 xenografts = assay type: in vivo, mouse; conditions: 50 or 100 mg/kg QD oral gavage, H2D Rag2 mice
Description: H2D Rag2 mice were inoculated with 3 million MiaPaCa-2 cells.

[4] = target: Kv11.1 (hERG) ion channel (Homo sapiens (Human), UniProt Q12809); assay: hERG patch clamp in Kv11.1 (hERG) transfected HEK293 cells; assay type: cell-based
Sequence of Kv11.1 (hERG) ion channel (Q12809 whole entry): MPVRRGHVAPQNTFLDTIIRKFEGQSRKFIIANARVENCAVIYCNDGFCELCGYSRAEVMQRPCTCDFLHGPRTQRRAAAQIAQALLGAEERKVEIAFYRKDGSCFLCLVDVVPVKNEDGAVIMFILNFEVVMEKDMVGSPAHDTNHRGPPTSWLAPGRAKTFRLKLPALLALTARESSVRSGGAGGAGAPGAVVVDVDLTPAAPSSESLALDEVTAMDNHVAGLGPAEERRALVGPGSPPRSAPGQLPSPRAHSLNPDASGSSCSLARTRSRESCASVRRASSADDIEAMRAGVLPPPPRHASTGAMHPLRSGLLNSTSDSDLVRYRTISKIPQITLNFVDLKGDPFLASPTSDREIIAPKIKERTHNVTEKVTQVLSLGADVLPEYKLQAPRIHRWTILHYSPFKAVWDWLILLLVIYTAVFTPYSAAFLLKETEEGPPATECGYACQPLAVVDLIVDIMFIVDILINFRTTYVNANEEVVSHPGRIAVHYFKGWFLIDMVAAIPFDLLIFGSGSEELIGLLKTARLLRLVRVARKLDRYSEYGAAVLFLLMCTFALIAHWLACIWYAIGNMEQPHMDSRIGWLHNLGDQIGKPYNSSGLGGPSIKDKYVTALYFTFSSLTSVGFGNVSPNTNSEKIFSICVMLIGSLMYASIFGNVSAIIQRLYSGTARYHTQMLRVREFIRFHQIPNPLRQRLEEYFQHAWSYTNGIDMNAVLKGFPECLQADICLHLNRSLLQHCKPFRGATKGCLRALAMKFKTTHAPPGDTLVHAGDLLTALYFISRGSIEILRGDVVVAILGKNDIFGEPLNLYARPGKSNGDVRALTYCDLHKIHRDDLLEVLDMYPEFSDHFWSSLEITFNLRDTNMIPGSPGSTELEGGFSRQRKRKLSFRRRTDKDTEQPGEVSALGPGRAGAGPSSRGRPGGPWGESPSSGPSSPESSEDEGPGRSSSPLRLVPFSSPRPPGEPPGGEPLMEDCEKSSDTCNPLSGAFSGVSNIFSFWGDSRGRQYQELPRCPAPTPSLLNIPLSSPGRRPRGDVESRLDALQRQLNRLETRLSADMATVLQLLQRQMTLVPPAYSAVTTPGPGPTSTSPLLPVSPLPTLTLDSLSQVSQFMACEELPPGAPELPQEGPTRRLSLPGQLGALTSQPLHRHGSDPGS
Description: Inhibition of the ion channel hErg (or Kv11.1) current causes QT interval prolongation resulting in potentially fatal ventricular tachyarrhythmia called Torsade de Pointes.
hERG ion channel activity was assessed using a patch clamp technique in stable Kv11.1 (hERG) transfected human embryonic kidney cell line (HEK293). Whole cell recordings were carried out with an automated patch clamp device Patchliner™ from Nanion Technologies, Munich following manufacturer recommendation. Different concentrations of the test compound or reference, quinidine, were applied to whole cells suspension and current was measured using a pulse pattern with fixed amplitudes.

pERK1/2 in KYSE520 cells = assay: p-Erk cellular assay in KYSE520 (Mesoscale); assay type: cell-based; conditions: Homo sapiens, KYSE-520, 2 h, read-out: pERK1/2 in Cell KYSE520 IC50
Description: The effect of SHP2 inhibitors on pERK level was assessed using phospho-specific antibody using Mesoscale quantification platform. For measuring change in pERK levels using mesoscale, 30,000 cells of KYSE520 cells were plated in 96-well tissue culture treated plate in 175 μl volume of media. After an overnight incubation at 37° C., various SHP2 inhibitors were added in different concentration to each well maintaining duplicate wells across plates and incubated with compounds for 2 h at 37° C. followed by a wash with ice cold PBS buffer. The cells were then lysed in lysis buffer and processed and analyzed for p-ERK/ERK as per manufacturer's instructions (Mesoscale discovery, cat No. […]-3).

[5] = test system: MCP-1 production in U937 cells; assay: Cytokine release assay: MCP-1 production in U937 cells stimulated with IL-6; assay type: cell-based
Description: Selected compounds were tested in a cytokine release assay in monocytic cells (U937) to test their anti-inflammatory properties. Cells were plated in a 96-well cell culture plate using serum-free media. The cells were treated with indicated concentrations of SHP-2 inhibitors for 30 minutes followed by overnight stimulation with recombinant IL-6 (50 ng/mL). The MCP-1 production was measured in the culture supernatant using a MCP-1 AlphaLISA kit (Perkin Elmer).

[6] = 10, 30 or 100 mg/kg QD oral gavage
[7] = 0.8, 2.5 or 8 mg/kg QD oral gavage

Sequence of Full length SHP2 protein (Recombinant Human SHP-2) (Q06124 2-593): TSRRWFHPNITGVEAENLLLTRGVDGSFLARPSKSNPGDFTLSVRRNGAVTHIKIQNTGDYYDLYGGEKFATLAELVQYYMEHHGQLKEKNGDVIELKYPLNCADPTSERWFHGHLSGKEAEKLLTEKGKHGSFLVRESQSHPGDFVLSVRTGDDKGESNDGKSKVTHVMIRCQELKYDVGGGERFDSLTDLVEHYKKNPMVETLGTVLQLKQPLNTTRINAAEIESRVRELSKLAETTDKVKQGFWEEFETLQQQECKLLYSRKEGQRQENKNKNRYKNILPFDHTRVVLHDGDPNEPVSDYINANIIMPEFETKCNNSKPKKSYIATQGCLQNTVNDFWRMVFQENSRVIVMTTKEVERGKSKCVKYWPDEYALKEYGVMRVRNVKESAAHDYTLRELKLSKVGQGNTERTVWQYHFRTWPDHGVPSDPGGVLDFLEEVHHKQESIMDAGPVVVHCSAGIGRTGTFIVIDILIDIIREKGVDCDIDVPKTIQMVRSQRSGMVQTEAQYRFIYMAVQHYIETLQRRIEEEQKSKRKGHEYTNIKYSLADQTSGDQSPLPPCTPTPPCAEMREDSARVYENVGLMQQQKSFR

Structure (SMILES)	IC50 [1]	AUC ng/ml*h (normalized to 1 mp/k) [2]	Cmax ng/mL (normalized to 1 mg/k) [2]	Fz [2]	also measured
C[C@@H]1OCC2(CCN(c3cc(=O)n(-c4cccc(Cl)c4Cl)c(C(F)F)n3)CC2)[C@@H]1N (atropisomer, axis not shown; (M)) [Compound 20b, (3M)-6-[(3S,4S)-4-amino-3-methyl-2-oxa-8-azaspiro[4.5]decan-8-yl]-3-(2,3-dichlorophenyl)-2-(difluoromethyl)-3,4-dihydropyrimidin-4-one]	1.1 µM				
Cc1c(N2CCC3(CC2)Cc2ccccc2[C@@H]3N)nc(C)n(-c2cccc(Cl)c2Cl)c1=O (atropisomer, axis not shown; (M)) [Compound 74c, (3M)-6-[(1R)-1-amino-1,3-dihydrospiro[indene-2,4′-piperidin]-1′-yl]-3-(2,3-dichlorophenyl)-2,5-dimethyl-3,4-dihydropyrimidin-4-one]	0.25 µM				
Cc1c(N2CCC3(CCC[C@@H]3N)CC2)nc(N)n(-c2cccc(Cl)c2Cl)c1=O (atropisomer, axis not shown; (M)) [Compound 78c, (3M)-2-amino-6-[(1S)-1-amino-8-azaspiro[4.5]decan-8-yl]-3-(2,3-dichlorophenyl)-5-methyl-3,4-dihydropyrimidin-4-one]	2.1 µM				
Cc1nc(N2CCC3(CC2)CO[C@@H](C)[C@H]3N)cc(=O)n1-c1cccc(Cl)c1Cl (single isomer, unassigned) [Compound 3b]		1765 ng·h/mL	223 ng/mL	85%	
Cc1c(N2CCC3(CC2)CO[C@@H](C)[C@H]3N)nc(C)n(-c2cccc(Cl)c2Cl)c1=O (single isomer, unassigned) [Compound 23b]		1222 ng·h/mL	177 ng/mL	100%	tumor growth (U87-MG xenografts): reduces tumor size as compared to baseline; also recorded: Tumor regression; tolerability (HPAF-2 xenografts): well tolerated; tumor growth (HPAF-2 xenografts): Significant tumor inhibition; tolerability (EBC-1 xenografts): well tolerated; tumor growth (EBC-1 xenografts): reduces tumor growth; also recorded: Significant tumor growth inhibition; tolerability (KYSE-520 xenografts; [6]): well tolerated; tumor growth (KYSE-520 xenografts; [6]): reduce growth of the tumor a significant amount; also recorded: dose-dependent significant tumor growth inhibition; IC50 [3]: 12 µM; tolerability (MiaPaCa-2 xenografts): well tolerated
Cc1c(N2CCC3(CC2)Cc2ncccc2[C@H]3N)nc(C)n(-c2cccc(Cl)c2Cl)c1=O (single isomer, unassigned) [Compound 66b]		2387 ng·h/mL	367 ng/mL	100%	Split between hErg and cell activity Ki (patch Clamp)/IC50 (KYSE) [4]: 580
Cc1c(N2CCC3(CCC[C@H]3N)CC2)nc(C)n(-c2cccc(Cl)c2Cl)c1=O (single isomer, unassigned) [Compound 67a]	19 µM				
Cc1c(N2CCC3(CCC[C@H]3N)CC2)nc(C)n(-c2cccc(Cl)c2Cl)c1=O (single isomer, unassigned) [Compound 67b]					IC50 (pERK1/2 in KYSE520 cells): 0.198 µM
Cc1c(N2CCC3(CC2)Oc2cnccc2C3N)nc(C)n(-c2cccc(Cl)c2Cl)c1=O (single isomer, unassigned) [Compound 80c]					IC50 (pERK1/2 in KYSE520 cells): 0.42 µM
Cc1c(N2CCC3(CC2)Oc2ccccc2[C@H]3N)nc(C)n(-c2cccc(Cl)c2Cl)c1=O (single isomer, unassigned) [Compound 81b]		3270 ng·h/mL	450 ng/mL	48%	
Cc1c(N2CCC3(CC2)Cc2ccccc2[C@H]3N)nc(C)n(-c2cccc(Cl)c2Cl)c1=O [Compound 74a, (3M)-6-[(1S)-1-amino-1,3-dihydrospiro[indene-2,4′-piperidin]-1′-yl]-3-(2,3-dichlorophenyl)-2,5-dimethyl-3,4-dihydropyrimidin-4-one]	0.001 µM	2108 ng·h/mL	129 ng/mL	100%	tolerability (KYSE-520 xenografts; [7]): well tolerated; tumor growth (KYSE-520 xenografts; [7]): reduce growth of the tumor a significant amount; also recorded: dose-dependent significant tumor growth inhibition
Cc1c(N2CCC3(CC2)c2ncccc2C[C@H]3N)nc(C)n(-c2cccc(Cl)c2Cl)c1=O [Compound 75, (3M)-6-[(6R)-6-amino-5,6-dihydrospiro[cyclopenta[b]pyridine-7,4′-piperidin]-1′-yl]-3-(2,3-dichlorophenyl)-2,5-dimethyl-3,4-dihydropyrimidin-4-one]	0.12 µM				IC50 (pERK1/2 in KYSE520 cells): 0.824 µM
Cc1c(N2CCC3(CC2)C[C@@H](C)C[C@H]3N)nc(C)n(-c2cccc(Cl)c2Cl)c1=O [Compound 77, (3M)-6-[(1R,3R)-1-amino-3-methyl-8-azaspiro[4.5]decan-8-yl]-3-(2,3-dichlorophenyl)-2,5-dimethyl-3,4-dihydropyrimidin-4-one]					MCP-1 production (FIG. 1) [5]: suppressed MCP-1 production
Cc1c(N2C[C@H]3CC(CO)C[C@@]3(CN)C2)nc(C)n(-c2cccc(Cl)c2Cl)c1=O (stereo partly drawn) [Compound 101, (3M)-6-[(3aR,6aS)-3a-(aminomethyl)-5-(hydroxymethyl)-octahydrocyclopenta[c]pyrrol-2-yl]-3-(2,3-dichlorophenyl)-2,5-dimethyl-3,4-dihydropyrimidin-4-one]	0.23 µM				
Cc1nc(N2CCC3(CC2)CO[C@@H](C)[C@H]3N)c(CO)nc1-c1cccc(Cl)c1Cl [RMC-4550, reference compound]		735 ng·h/mL	85 ng/mL	86%	tumor growth (HPAF-2 xenografts): Significant tumor inhibition
